target: T1, pyranose oxidase (Trametes versicolor, UniProt P79076); experiment: Substrate specificity of pyranose oxidase (hydrogen peroxide / 4-aminoantipyrine-phenol-peroxidase colour reaction); assay type: biochemical, Coriolus versicolor; conditions: pH 7
T1 construct: purified, about 290 kDa by gel filtration; mature N-terminus […] in fungal enzyme; pPRME18 is the alternative N-terminally shortened construct
Method: 3.0 ml of an enzyme-containing solution consisting of 1.0 ml of 0.1M Tris-HC1 buffer, pH 7.0, 0.2 ml of a color-producing solution (prepared by adding 2000 U peroxidase to 100 ml of 0.1 M Tris-HCl buffer, pH 7.0 containing 10 mM 4-aminoantipyrine and 10 mM phenol), 0.1 ml of 1M glucose, 0.1 ml pyranose oxidase solution and 1.6 ml water was allowed to react at 37° C., and the increase in absorbance at 500 nm was determined with U2000 double beam spectrophotometer (manufactured by Hitachi, Ltd.).
One unit of enzyme activity is defined as the amount of enzyme which causes formation of 1 μmol of hydrogen peroxide per minute at 37° C., pH 7.0. The calculation of […] was carried out using the following equation assuming that the molecular extinction coefficient of the quinoimine pigment formed under the above conditions is 5.3 x 10^3 : Enzyme activity: (ΔA500 /5.3)×(3.0/0.1)×dilution degree of enzyme.
For examination of the substrate specificity of the present enzyme, each of sugar solutions (0.1 M) shown in Table 1 was used in place of glucose in the method described in (1) above. 2.5 units of pyranose oxidase were added to the reaction solution. The activity for each substrate is shown in relative activity that is expressed relative to that (100%) for the substrate glucose.

Compound	relative activity (%)
galactose	3.2%
mannose	0.2%

same assay, conditions: pH 7, read-out: relative activity (%)

Compound	activity at 3300 µM
O=C(CO)[C@@H](O)[C@H](O)[C@@H](O)CO [L-sorbose]	9%

same assay, conditions: substrate 3.3 mM; relative to glucose = 100%; 2.5 units of pyranose oxidase; 37° C., pH 7.0

Compound	relative activity (%)
OC[C@H]1O[C@H](O[C@H]2O[C@H](CO)[C@@H](O)[C@H](O)[C@H]2O)[C@H](O)[C@@H](O)[C@@H]1O [trehalose]	0.1%
O=C(O)[C@H](O)[C@@H](O)[C@H](O)[C@H](O)CO [gluconic acid]	0.4%
OC[C@H]1O[C@H](O[C@H]2[C@H](O)[C@@H](O)[C@H](O)O[C@@H]2CO)[C@H](O)[C@@H](O)[C@@H]1O [maltose]	1.1%

same assay, conditions: substrate 3.3 mM; relative to glucose = 100%; 2.5 units of pyranose oxidase; 37° C., pH 7.0; read-out: relative activity (%)

Compound	activity at 3300 µM
C[C@@H]1OC(O)[C@H](O)[C@H](O)[C@H]1O (stereo partly drawn) [L-rhamnose]	0.1%
OC[C@@H](O)[C@H](O)[C@@H](O)CO [xylitol]	0%
OC[C@H]1OC(O)C[C@@H](O)[C@@H]1O (stereo partly drawn) [2-deoxy-D-glycose]	1.6%
OC[C@H]1O[C@@](CO)(O[C@H]2O[C@H](CO)[C@@H](O)[C@H](O)[C@H]2O)[C@@H](O)[C@@H]1O [sucrose]	0%
OC[C@H]1OC[C@H](O)[C@@H](O)[C@@H]1O [1,5-anhydro-D-glucitol]	14.2%
OC[C@H]1O[C@H](OC[C@H]2O[C@H](O[C@]3(CO)O[C@H](CO)[C@@H](O)[C@@H]3O)[C@H](O)[C@@H](O)[C@@H]2O)[C@H](O)[C@@H](O)[C@H]1O [raffinose]	0%
O=C1O[C@H](CO)[C@@H](O)[C@H](O)[C@H]1O [D-gluconic acidδ lactone]	0.4%
OC1OC[C@@H](O)[C@H](O)[C@H]1O (stereo partly drawn) [D-xylose]	6.5%
OC[C@@H](O)[C@@H](O)[C@H](O)[C@@H](O)CO [D-sorbitol]	0%
CC(=O)N[C@H]1C(O)O[C@H](CO)[C@@H](O)[C@@H]1O (stereo partly drawn) [N-acetyl-D-glucosamine]	0%

same assay, conditions: summary of Table 1

Compound	substrate specificity in words
galactose	acts on
OC[C@H]1OC[C@H](O)[C@@H](O)[C@@H]1O [1,5-anhydro-D-glucitol]	acts on
OC1OC[C@@H](O)[C@H](O)[C@H]1O (stereo partly drawn) [D-xylose]	acts on
